Test [1] is described as follows: KM-34 capacity to reduce DPPH radicals. Format: biochemical. The following applies: DPPH 100 μM, 30 minutes of reaction; read-out: IC50, reduction of DPPH radicals. As to the method: FIG. 1. Percentage reduction of DPPH (100 μM) by KM-34 (5-400 μM) was determined by changing in the absorbance at 550 nm from a target containing only DPPH and vehicle (zero concentration of KM −34 or AA), after 30 minutes of reaction. Values are expressed as the mean ± SD (n=3). *P<0.05 with respect to the vehicle.
One of the most commonly used methods to estimate antioxidant activity is to evaluate the ability of different compounds to reduce DPPH radicals, which can be determined spectrophotometrically (Brand-Williams et al., 1995). […] Electron delocalization causes the intense violet coloration of the DPPH radical form when it is prepared in ethanol solution (Molyneux et al., 2004).
The IC 50 value obtained for KM was approximately 2.4 times lower than that obtained for ascorbic acid (AA) used as the reference compound.

The subject of test [2] is transient occlusion of the common carotid arteries. The test can be described thus: Vascular dementia model (transient occlusion of common carotid arteries), Morris maze. Type of test: in vivo, male Swiss albino mice. The following applies: JM-20 4 mg/kg p.o., 1 hour after reperfusion and all days of the test; vs animals without treatment. As to the method: As a model of vascular dementia, the animals (male Swiss albino mice) underwent transient occlusion of the common carotid arteries for 20 minutes and cognitive impairment was evaluated through the Morris labyrinthine assay. […] As a model of permanent cortical ischemia, thermo-coagulation of the pials arteries was induced and the percentage of asymmetry was quantified.

Consider two molecules from patent US10722491B2, “Phenol compound and combination of same with a benzodiazepine fused to 1,4-dihydropyridine for treating diseases of the central nervous and vascular systems” (UNIVERSIDAD DE LA HABANA, priority 2016, dated 2020).

In the case of `O=C1O[C@H]([C@@H](O)CO)C(O)=C1O` [AA, ascorbic acid, reference compound], the IC50 in test [1] came to 38.7 µM.
In the case of `CCOC(=O)C1=C(C)NC2=C(C=Nc3ccccc3N2)C1c1ccccc1[N+](=O)[O-]` (centres unmarked) [JM-20, 3-ethoxycarbonyl-2-methyl-4-(2-nitrophenyl)-4,11-dihydro-1H-pyrido[2,3-b][1,5]benzodiazepine], in test [2], the “Escape latency time, Morris maze” value is recorded as “significantly (p<0.05)”.

As a reminder, the IC50 is the concentration needed to halve the response being measured.
